# Measured values published in patent US20240245783A1, “METALLO-BETA-LACTAMASE INHIBITOR” (priority 2021, published 2024).
# Target: T1, recombinant metallo-β-lactamase (recombinant IMP-1) (Serratia marcescens, UniProt P52699)
# T1 construct: made in house; host or cells: E. coli BL21(DE3), vector pET29a
# Test: Inhibition of meropenem degradation by recombinant IMP-1 (Test Example 1)
# Assay type: biochemical
# Conditions: 100 μM meropenem, no inhibitor; 1 hour at 37° C.
# Protocol: Based on the description of NON PATENT LITERATURE 5, a recombinant metallo-β-lactamase (recombinant IMP-1) was prepared. “NG_049172” of Database: RefSeq as the IMP-1 gene was incorporated into vector pET29a (Novagen), and then expressed in E. coli BL21(DE3) (Invitrogen).
# Recombinant IMP-1 was dissolved in a 50 mM sodium phosphate buffer (pH 7.6) at a concentration of 0.25 μg/ml. Furthermore, zinc chloride was added to the solution in such a manner that the concentration was 0.1 μM. The resultant in this state was subjected to preincubation at 37° C. for 10 minutes. […] After 1 hour of incubation at 37° C. residual meropenem was quantified by tandem mass spectrometry. Meropenem was quantified by a multiple reaction monitoring method. […]
# Reverse phase column: YMC-Triat C18 Plus column (2.1×50 mm); column temperature: 45° C.; mobile phase (2 liquids): mobile phase A (0.1% formic acid aqueous solution), mobile phase B (acetonitrile); gradient: increase from 1% B to 80% B for 10 minutes, keep it at 80% B for 0.5 minutes, and then return it to 1% B over 1 minute. […] Detection: multiple reaction monitoring, parent ion at 384.2, child ion at 68.1; measured in a positive ion mode.
# FIG. 4 depicts a graph showing the results of quantifying the peak area of meropenem detected in FIG. 3. The peak of meropenem alone is expressed as 100%.
# T1 sequence (P52699 19-246 limits assumed): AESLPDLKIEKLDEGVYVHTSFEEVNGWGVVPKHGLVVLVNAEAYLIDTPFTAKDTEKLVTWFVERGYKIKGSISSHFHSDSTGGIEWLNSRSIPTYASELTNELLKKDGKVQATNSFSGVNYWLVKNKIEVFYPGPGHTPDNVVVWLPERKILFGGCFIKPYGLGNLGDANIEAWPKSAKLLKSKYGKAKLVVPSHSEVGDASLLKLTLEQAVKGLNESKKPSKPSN
smiles,measurement,value
"C[C@@H](O)[C@H]1C(=O)N2C(C(=O)O)=C(S[C@@H]3CN[C@H](C(=O)N(C)C)C3)[C@H](C)[C@H]12 [meropenem, reference compound]",degradation of meropenem on incubation with IMP-1,completely degraded
